According to patent publication US10231958B2, “Methods and compositions for enhancing chemotherapy” (THE BOARD OF REGENTS OF THE UNIVERSITY OF TEXAS SYSTEM, priority 2015, dated 2019):
“Also recorded” adds a separate entry of the source.

Key:
[1] = system: MDA-MB231 cells; assay: Gene expression profiling (RNAseq) in MDA-MB231 cells; type: cell-based, human
Procedure: Human cancer cell-lines treated with different pharmaceutical compounds were profiled by RNA-seq protocol using Illumina HiSeq 2000 system (Illumina, San Diego, Calif.). RNA was harvested 0, 8 and 24 hours post treatment using the RNeasy protocol (Qiagen) and the purity of prepared RNA was determined using Agilent 2100 BioAnalyzer. Total RNA samples about […] were used for sequencing library preparation according to Illumina TruSeq Total RNA Sample Preparation Guide (Illumina Cat. #: RS-122-2201). Each library was bar-coded and then pooled for cluster generation and sequencing run with 100 bp paired-end (PE) sequencing protocol. Short read sequences from RNAseq were first aligned to UCSC hg19 genome build using TopHat2 algorithm (PMID:19289445) and then quantified for gene expression by HTSeq [Anders, 2014]. Genes with lower read counts (determined by examining read counts in non-exonic regions) were removed. Differential expression more than 2 fold was selected as differentially expressed genes (DEGs).
For those genes for which expression was higher than noise/background, significant change in expression compared to unexposed (0 h) control, ±2-fold change, was used as cut-off for induction/repression. The lists of genes with altered expression were analyzed using Ingenuity Systems (IPA, Ingenuity Pathway Analyzer, Qiagen), DAVID (PMID:19131956; PMID: 19033363), and Rock Breast Cancer Functional Genomic Database (PMID:20563840) analytical software (p<0.05; FDR<10%) to ensure a good coverage of both metabolic and transduction pathways (due to differences in pathways libraries with the databases). Only pathways related to biological processes/signaling were considered relevant, and the terms were grouped by similarity of the biological for presentation; disease related pathways were discarded. Transcription factor enrichment analysis was performed using the TFactS software (PMID:20215436), which uses an algorithm to compare potential transcription factors involved in the regulation of genes with the input lists. […]

[2] = system: MDA-MB231 xenograft implants; assay: MDA-MB231 xenograft study; type: in vivo, mouse
Excerpt: The study was approved by the University of Texas Health Science Center at San Antonio Institutional Animal Care and Use Committee (IACUC) policy as outlined in protocol number 11024. The facility is operated in compliance with the Public Law 89-544 (Animal Welfare Act) and its amendments, Public Health Services Policy on Humane Care and Use of Laboratory Animals (PHS Policy) using the Guide for the Care and Use of Laboratory Animals (Guide) as the basis of operation. Selection of cyclophosphamide and sorafenib doses was based on previously published reports (Sun et al., 2010, J Int Med Res 38, 967-76; Wilhelm et al., 2004 Cancer Res 64, 7099-109). MDA-MB-231 cells were harvested by trypsinization, washed and re-suspended in serum-free medium. Thereafter, cells were mixed with matrigel (1:1), and approximately 5×10^6 cells were subcutaneously injected in the right flank of each mouse. When the average tumor volume reached about 100 mm^3, mice were randomized into groups of 8 animals each, and the following treatment protocol was implemented: Group 1 (control): 100 μL of saline (i.p.); Group 2: sorafenib (1 mg/kg; i.p.) for 9 days; Group 3: cyclophosphamide 0.1 g/kg on days 2, 4, 6 and 8; Group 4: Sorafenib+cyclophosphamide (combination of same above described regimens). All animals were sacrificed 5 days after the end of treatments (15th day of the treatment protocol). Body weight of mice was recorded weekly, and tumor size was measured thrice a week in two dimensions using a digital caliper. The tumor volume was calculated by the formula 0.5236 L1(L2)^2, where L1 is the long axis, and L2 is the short axis of the tumor. At the termination of the study, mice were euthanized; tumors were excised and a part was fixed in 10% phosphate-buffered formalin for H&E, Masson's staining and immunohistochemistry (IHC) analyses.

[3] = system: primary MEFs or breast cancer cells; assay: Cell viability of MEFs and breast cancer cells with kinase inhibitors; type: cell-based, mouse, human
Procedure: The D. melanogaster embryonic cell line Kc167 was grown in Schneider medium (Invitrogen, Carlsbad, Calif.) supplemented with 10% heat-inactivated (56° C./30 min) fetal bovine serum (FBS), penicillin and streptomycin at 22° C. in a humidified incubator. Primary MEFs were obtained by harvesting 14.5-day C57BL/6J embryos as previously described (Ravi et al., 2009, PLoS Genet 5, e1000527). Briefly, fetal liver and head were removed and the remainder of the embryo was mechanically disaggregated in plating medium. A suspension of single-cells was plated in DMEM (plus 10% FBS, 100 U/mL penicillin and 100 μg/mL streptomycin). MEFs were grown for two passages before freezing aliquots. Aliquots were taken and expanded as needed for each experiment. MDA-MB231, SkBr3 and MCF-7 breast cancer cells lines were obtained from ATCC and grown in DMEM supplemented with 10% inactivated FBS plus antibiotics in a 37° C. humidified incubator at […] atmosphere. Cells were kept and treated in the exponential phase of growing (60-70% confluence). Pharmaceuticals Sorafenib (Santa Cruz Biotechnology), UO126, SP600125, SB239063, celecoxib, buthionine sulfoximine (BSO), cycloheximide (CHX), actinomycin D and BAY117082 (BAY), or antioxidants as N-Acetyl-Cysteine (NAC), glutathione ethyl-ester (GSH-E) and Trolox (all from Sigma-Aldrich, USA) were pre-incubated with cells for 6 to 8 h before treatments with MMS, temozolomide, CDDP (from Sigma-Aldrich, USA) or 4-hydroperoxycyclophosphamide (4-HC; from US Biological). DMSO concentrations were kept to a maximum of 0.1% for all experiments.
Cell viability was assessed using CellTiter-Glo Luminescent Viability assay (Promega) in 384 or 96-well plates white-border clear-bottom plated cells. For caspase-3/7 activity, Caspase-Glo 3/7 Assay kits were used (Promega). For caspase assays, the cells were seeded in 96-well plates and assayed directly after treatments. […] LDH release into culture medium was quantified by Cytotox-96 Non-Radioactive assay kit in agreement with instructions (Promega).

`CNC(=O)c1cc(Oc2ccc(NC(=O)Nc3ccc(Cl)c(C(F)(F)F)c3)cc2)ccn1` [sorafenib, 4-[4-[[4-chloro-3-(trifluoromethyl)phenyl]carbamoylamino]phenoxy]-N-methyl-pyridine-2-carboxamide] was tested, and the “effect on NRF2 and UPR genes” value ([1]; 5 μM sorafenib) was “lack of effect”, the “effect on basal gene expression (VEGFA, HES1, MAML3, PLAT, ADAMST1)” value ([1]; 5 μM sorafenib) was “decreased basal expression of several genes” and the “effect on MMS-induced inflammatory/invasive genes” value ([1]; 5 μM sorafenib plus MMS) was “blocked several of the aforementioned MMS-induced inflammatory/invasive genes”. For the same compound, the “tumor growth, single agent” value ([2]; sorafenib 1 mg/kg i.p. 9 days, cyclophosphamide 0.1 g/kg days 2, 4, 6, 8) was “significantly decrease tumor growth”, the “tumor growth, combination with cyclophosphamide” value ([2]; sorafenib 1 mg/kg i.p. plus cyclophosphamide 0.1 g/kg) was “synergize with cyclophosphamide” and the “tumor volume at which growth was stabilized” value ([2]; sorafenib alone, 7 days of treatment) was roughly 150 mm^3. For the same compound, the “effect on cyclophosphamide-induced angiogenic response” value ([2]; sorafenib combined with cyclophosphamide) was “significant inhibition of cyclophosphamide-induced angiogenic response; also recorded: blocked cyclophosphamide-induced vessels formation”, the “effect on viability at low concentrations” value ([3]; 1 to 5 μM, presence or absence of alkylating agents) was “did not affect MMS/4-HC-induced losses in cell viability” and the “concentration with non-selective cytotoxicity” value ([3]; breast cell lines and MEFs, GSH depletion, aberrant ROS) was no less than 20 µM. The “viability at higher levels” value ([3]; higher levels of sorafenib) was “non-selective detriment to both cancer cells and MEFs”.
